# Where two headings read alike, the source gives them in different places.
# Key:
# CYP2D6 = biological target: T1, CYP2D6 (Homo sapiens, UniProt P10635); assay: biochemical; assay type: in vitro ADME; conditions: CYP2D6 (Dextromethorphan), HLM
# T1 construct: Add 400 μL 0.2 mg/mL HLM; from tissue; host or cells: human liver microsomes (HLM)
# Experimental: (§1) Preheat 0.1 M pH 7.4 K/Mg-buffer at 37 °C. The reference inhibitors for this assay are α-Naphthoflavone (1A2), Ticlopidine (2B6), Montelukast (2C8), Sulfaphenazole (2C9), Omeprazole (2C19), Quinidine (2D6), Ketoconazole (3A4). Test compound and reference inhibitors were dissolved in ACN. NADPH cofactor was dissolved in K/Mg-buffer. Each CYP450 isoform was prepared 2 mL substrate (1A2: Phenacetin, 2B6: Amfebutamone HCl, 2C8: Paclitaxel, 2C9: Diclofenac, 2C19: S-Mephenytoin, 2D6: Dextromethorphan, 3A4: Midazolam and Testosterone). Add 400 μL 0.2 mg/mL HLM and 2 μL of test compound set (serially diluted) to the assay wells. And then add 30 μL HLM-compound mixture and 15 μL substrate solution in the 96-well assay plate on ice. Then incubate the 96-well assay plate at 37 °C for 5 min. Add 15 µL of pre-warmed (37 °C) 8 mM NADPH solution to initiate the enzyme reaction. Incubate the assay plate at 37 °C for 5–45 min and quench the reaction. Then collect samples for LC/MS analysis.
# CYP2B6 = biological target: T2, CYP2B6 (Homo sapiens, UniProt P20813); assay: biochemical; assay type: in vitro ADME; conditions: CYP2B6 (Bupropion), HLM
# T2 construct: Add 400 μL 0.2 mg/mL HLM; from tissue; host or cells: human liver microsomes (HLM)
# Experimental: as §1
# CYP2C8 = biological target: T3, CYP2C8 (Homo sapiens, UniProt P10632); assay: biochemical; assay type: in vitro ADME; conditions: CYP2C8 (Paclitaxel), HLM
# T3 construct: Add 400 μL 0.2 mg/mL HLM; from tissue; host or cells: human liver microsomes (HLM)
# Experimental: as §1
# CYP3A4 = biological target: T4, CYP3A4 (Homo sapiens, UniProt P08684); assay: biochemical; assay type: in vitro ADME
# T4 construct: Add 400 μL 0.2 mg/mL HLM; from tissue; host or cells: human liver microsomes (HLM)
# Experimental: as §1
# CYP2C9 = biological target: T5, CYP2C9 (Homo sapiens, UniProt P11712); assay: biochemical; assay type: in vitro ADME; conditions: CYP2C9 (Diclofenac), HLM
# T5 construct: Add 400 μL 0.2 mg/mL HLM; from tissue; host or cells: human liver microsomes (HLM)
# Experimental: as §1
# CYP2C19 = biological target: T6, CYP2C19 (Homo sapiens, UniProt P33261); assay: biochemical; assay type: in vitro ADME; conditions: CYP2C19 (S-Mephenytoin), HLM
# T6 construct: Add 400 μL 0.2 mg/mL HLM; from tissue; host or cells: human liver microsomes (HLM)
# Experimental: as §1
# CYP1A2 = biological target: T7, CYP1A2 (Homo sapiens, UniProt P05177); assay: biochemical; assay type: in vitro ADME; conditions: CYP1A2 (Phenacetin), HLM
# T7 construct: Add 400 μL 0.2 mg/mL HLM; from tissue; host or cells: human liver microsomes (HLM)
# Experimental: as §1
# [1] = Beagle Dog, i.v. (1 mg/kg)
# SARS-CoV-2 (B.1.1.7) = assay: Plaque reduction assay in VeroE6-TMPRSS2; assay type: cell-based; conditions: Severe acute respiratory syndrome coronavirus 2
# Neutrophil Elastase = biological target: T8, Neutrophil Elastase (Homo sapiens, UniProt P08246); assay: Mammalian proteases activity assay; assay type: biochemical
# T8 construct: purchased Biovision, USA
# Experimental: (§2) The mammalian proteases activity assay was analyzed using the assay kit (Biovision, USA) in triplicate by following manufacturer’s manual.
# Human Cathepsin L = biological target: T9, Human Cathepsin L (Homo sapiens, UniProt P07711); assay: Mammalian proteases activity assay; assay type: biochemical
# T9 construct: purchased Biovision, USA
# Experimental: as §2
# [2] = ICR Mice
# in vitro = assay type: cell-based; conditions: 72 h
# Experimental: Cells were seeded and grown in 96 well plates overnight. Then various concentrations of compounds in fresh medium were added and incubated for 72 h. Using MTT (Sigma) assay to determine the cell viability.
# SARS-CoV-2 (B.1.351) = assay: Plaque reduction assay in VeroE6-TMPRSS2; assay type: cell-based; conditions: Severe acute respiratory syndrome coronavirus 2
# in vivo = conditions: male, ICR, mouse
# [3] = for Corpora lutea / Implantation sites / Live embryos / Resorptions: cesarean section observation; for appearance malformation rate (%): fetal appearance
# [4] = SD rats
# [5] = test system: SARS-CoV-2 Omicron BA.2 sublineage; assay type: in vivo, K18-hACE2 transgenic mice
# various human proteases = assay: Mammalian proteases activity assay (text summary of the panel); assay type: biochemical; conditions: tested various human proteases
# Experimental: as §2
# [6] = female, SD, rat, in vivo, 1000 mg/kg
# T4 sequence (P08684 whole entry): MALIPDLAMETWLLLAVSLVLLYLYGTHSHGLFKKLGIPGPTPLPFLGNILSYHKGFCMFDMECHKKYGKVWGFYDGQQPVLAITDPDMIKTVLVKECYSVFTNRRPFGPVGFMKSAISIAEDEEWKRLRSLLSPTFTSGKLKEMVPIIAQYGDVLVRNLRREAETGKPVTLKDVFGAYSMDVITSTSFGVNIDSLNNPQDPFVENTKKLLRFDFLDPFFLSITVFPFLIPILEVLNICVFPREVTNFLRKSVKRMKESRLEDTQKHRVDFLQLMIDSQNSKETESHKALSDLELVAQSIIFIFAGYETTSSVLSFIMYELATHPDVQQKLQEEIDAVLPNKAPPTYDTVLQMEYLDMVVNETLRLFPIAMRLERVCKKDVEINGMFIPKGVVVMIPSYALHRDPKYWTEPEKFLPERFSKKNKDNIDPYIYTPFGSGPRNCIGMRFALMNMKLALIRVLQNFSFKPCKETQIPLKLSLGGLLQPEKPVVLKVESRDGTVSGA
# T7 sequence (P05177 whole entry): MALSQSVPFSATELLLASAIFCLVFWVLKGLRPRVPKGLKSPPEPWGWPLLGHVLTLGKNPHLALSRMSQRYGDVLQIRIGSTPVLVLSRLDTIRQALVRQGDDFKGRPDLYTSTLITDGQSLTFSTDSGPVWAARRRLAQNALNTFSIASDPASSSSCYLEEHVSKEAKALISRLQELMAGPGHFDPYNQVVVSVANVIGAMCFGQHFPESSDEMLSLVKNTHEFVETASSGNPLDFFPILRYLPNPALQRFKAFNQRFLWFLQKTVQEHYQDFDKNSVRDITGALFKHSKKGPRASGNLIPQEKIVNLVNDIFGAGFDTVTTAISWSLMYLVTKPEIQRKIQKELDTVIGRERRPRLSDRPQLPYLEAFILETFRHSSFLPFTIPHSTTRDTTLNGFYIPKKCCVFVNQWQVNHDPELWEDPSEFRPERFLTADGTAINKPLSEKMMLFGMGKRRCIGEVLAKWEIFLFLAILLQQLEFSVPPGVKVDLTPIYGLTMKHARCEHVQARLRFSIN
# T8 sequence (P08246 30-267): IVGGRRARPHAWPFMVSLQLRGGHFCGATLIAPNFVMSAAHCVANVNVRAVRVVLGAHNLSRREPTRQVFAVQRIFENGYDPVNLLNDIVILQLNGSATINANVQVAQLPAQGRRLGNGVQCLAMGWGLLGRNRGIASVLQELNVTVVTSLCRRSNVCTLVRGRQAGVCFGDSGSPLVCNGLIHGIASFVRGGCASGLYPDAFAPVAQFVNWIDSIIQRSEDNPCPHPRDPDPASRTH
# T9 sequence (P07711 114-333): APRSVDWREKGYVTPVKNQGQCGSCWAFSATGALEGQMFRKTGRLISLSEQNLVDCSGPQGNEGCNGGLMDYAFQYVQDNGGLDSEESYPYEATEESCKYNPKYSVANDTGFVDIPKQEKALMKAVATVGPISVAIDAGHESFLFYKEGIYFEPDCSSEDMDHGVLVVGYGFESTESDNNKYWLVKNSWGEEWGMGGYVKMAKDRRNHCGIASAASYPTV
# T1 sequence (P10635 whole entry): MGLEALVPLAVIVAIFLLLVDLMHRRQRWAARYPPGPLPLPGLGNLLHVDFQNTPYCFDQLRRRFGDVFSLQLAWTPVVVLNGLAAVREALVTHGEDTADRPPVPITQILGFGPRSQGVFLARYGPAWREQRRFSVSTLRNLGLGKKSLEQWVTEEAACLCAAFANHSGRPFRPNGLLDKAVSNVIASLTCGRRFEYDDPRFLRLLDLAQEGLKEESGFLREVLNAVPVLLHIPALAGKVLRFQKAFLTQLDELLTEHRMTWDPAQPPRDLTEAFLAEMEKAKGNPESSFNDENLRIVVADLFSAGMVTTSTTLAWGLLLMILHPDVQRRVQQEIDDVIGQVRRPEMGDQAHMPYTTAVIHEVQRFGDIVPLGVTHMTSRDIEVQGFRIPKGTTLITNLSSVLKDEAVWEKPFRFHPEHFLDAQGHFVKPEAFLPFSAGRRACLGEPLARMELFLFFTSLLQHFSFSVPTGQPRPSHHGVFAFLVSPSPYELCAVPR
# T5 sequence (P11712 whole entry): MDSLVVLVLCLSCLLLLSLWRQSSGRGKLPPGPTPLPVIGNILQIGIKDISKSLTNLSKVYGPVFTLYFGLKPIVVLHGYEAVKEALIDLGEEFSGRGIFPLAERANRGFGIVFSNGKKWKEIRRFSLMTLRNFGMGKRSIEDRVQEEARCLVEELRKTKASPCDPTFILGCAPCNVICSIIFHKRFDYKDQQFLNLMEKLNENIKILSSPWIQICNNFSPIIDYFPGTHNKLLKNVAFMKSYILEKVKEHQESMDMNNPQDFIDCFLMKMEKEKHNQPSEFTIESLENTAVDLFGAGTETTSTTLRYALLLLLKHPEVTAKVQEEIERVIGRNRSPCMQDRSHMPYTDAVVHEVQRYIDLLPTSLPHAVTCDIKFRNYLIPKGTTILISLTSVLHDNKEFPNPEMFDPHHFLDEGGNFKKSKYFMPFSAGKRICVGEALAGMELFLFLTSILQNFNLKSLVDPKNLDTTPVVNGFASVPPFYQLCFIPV
# T6 sequence (P33261 whole entry): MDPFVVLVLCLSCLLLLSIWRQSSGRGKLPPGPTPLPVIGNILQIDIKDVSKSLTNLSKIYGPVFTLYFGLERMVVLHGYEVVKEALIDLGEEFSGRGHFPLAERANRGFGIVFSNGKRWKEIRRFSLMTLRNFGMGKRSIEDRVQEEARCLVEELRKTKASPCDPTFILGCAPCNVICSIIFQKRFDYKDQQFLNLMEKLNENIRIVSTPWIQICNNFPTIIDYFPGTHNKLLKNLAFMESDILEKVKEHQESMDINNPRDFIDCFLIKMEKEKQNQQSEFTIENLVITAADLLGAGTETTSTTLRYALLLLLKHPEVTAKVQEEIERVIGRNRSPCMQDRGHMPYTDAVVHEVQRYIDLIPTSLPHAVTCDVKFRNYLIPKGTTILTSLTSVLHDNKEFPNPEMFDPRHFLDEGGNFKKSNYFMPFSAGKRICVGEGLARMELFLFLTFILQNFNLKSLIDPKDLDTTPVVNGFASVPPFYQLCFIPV
# T2 sequence (P20813 whole entry): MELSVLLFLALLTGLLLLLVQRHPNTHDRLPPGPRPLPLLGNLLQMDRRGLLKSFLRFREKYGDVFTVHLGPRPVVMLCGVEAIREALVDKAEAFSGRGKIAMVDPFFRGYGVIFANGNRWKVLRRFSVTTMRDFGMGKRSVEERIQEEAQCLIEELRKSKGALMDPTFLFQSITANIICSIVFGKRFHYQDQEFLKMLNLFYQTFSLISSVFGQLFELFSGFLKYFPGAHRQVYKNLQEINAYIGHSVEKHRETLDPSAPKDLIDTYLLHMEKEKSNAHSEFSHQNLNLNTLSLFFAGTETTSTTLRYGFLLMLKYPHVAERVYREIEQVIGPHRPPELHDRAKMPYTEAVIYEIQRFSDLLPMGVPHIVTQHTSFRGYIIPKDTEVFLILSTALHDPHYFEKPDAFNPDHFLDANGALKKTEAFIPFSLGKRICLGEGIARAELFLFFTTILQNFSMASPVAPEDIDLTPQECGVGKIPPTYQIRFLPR
# T3 sequence (P10632 whole entry): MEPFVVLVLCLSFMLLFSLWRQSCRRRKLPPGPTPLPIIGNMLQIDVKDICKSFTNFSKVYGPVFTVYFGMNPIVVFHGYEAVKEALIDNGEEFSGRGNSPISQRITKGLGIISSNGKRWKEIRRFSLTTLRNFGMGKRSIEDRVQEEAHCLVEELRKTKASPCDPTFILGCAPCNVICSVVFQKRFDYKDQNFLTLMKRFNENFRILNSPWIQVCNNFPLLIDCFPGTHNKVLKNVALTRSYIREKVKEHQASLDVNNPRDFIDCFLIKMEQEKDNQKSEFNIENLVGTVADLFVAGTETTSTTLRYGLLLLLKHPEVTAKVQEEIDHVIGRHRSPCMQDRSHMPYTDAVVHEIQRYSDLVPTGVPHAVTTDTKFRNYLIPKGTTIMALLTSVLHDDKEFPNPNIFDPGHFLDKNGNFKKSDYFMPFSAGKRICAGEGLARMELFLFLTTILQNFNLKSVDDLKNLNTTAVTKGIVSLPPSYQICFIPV
smiles,measurement,setting,value
"COC[C@@H](NC(=O)C1CCCC(F)(F)C1)C(=O)N[C@H](Cc1ccccc1)C(=O)C(=O)NCc1nccs1 (stereo partly drawn) [SY110, N-((R)-1-(((R)-3,4-dioxo-1-phenyl-4-((thiazol-2-ylmethyl)amino)butan-2-yl)amino)-3-methoxy-1-oxopropan-2-yl)-3,3-difluorocyclohexane-1-carboxamide]",IC50,CYP2D6,> 30 µM
same,IC50,CYP2B6,> 30 µM
same,IC50,CYP2C8,> 30 µM
same,IC50,"CYP3A4; CYP3A4 (Midazolam), HLM",> 30 µM
same,IC50,"CYP3A4; CYP3A4 (Testosterone), HLM",> 30 µM
same,IC50,"CYP3A4; CYP3A4, text, substrate not stated there",> 30 µM
same,IC50,CYP2C9,> 30 µM
same,IC50,CYP2C19,> 30 µM
same,IC50,CYP1A2,> 30 µM
same,MTRlast,[1],0.47 ± 0.05 h
same,EC50,SARS-CoV-2 (B.1.1.7),1.21 µM
same,IC50,Neutrophil Elastase,> 100 µM
same,IC50,Human Cathepsin L,> 100 µM
same,MTRlast,[2]; i.v. (1 mg/kg),0.17 ± 0.03 h
same,Vzobs,[2]; i.v. (1 mg/kg),4.27 ± 2.29 L/kg
same,MTRlast,[2]; p.o. (150 mg/kg),3.62 ± 1.18 h
same,CC50,"in vitro; African green monkey, VeroE6, MTT",> 500 µM
same,CC50,"in vitro; human, BEAS-2B, MTT",> 500 µM
same,CC50,"in vitro; human, HUVEC, MTT",> 500 µM
same,EC50,SARS-CoV-2 (B.1.351),2.84 µM
same,AUC(0-inf),"in vivo; iv, 1 mg/kg",87.1 ± 7.81 ng·h/mL
same,AUC(0-t),"in vivo; iv, 1 mg/kg",85.9 ± 7.6 ng·h/mL
same,Cmax,"in vivo; iv, 1 mg/kg",285 ± 16.4 ng/mL
same,Tmax,"in vivo; iv, 1 mg/kg",4.8 min
same,clearance,"in vivo; iv, 1 mg/kg",192 ± 16.4 mL/min/kg
same,half-life,"in vivo; iv, 1 mg/kg",16.2 ± 10.2 min
same,AUC(0-inf),"in vivo; po, 150 mg/kg",15700 ± 4420 ng·h/mL
same,AUC(0-t),"in vivo; po, 150 mg/kg",15100 ± 5140 ng·h/mL
same,Cmax,"in vivo; po, 150 mg/kg",4080 ± 636 ng/mL
same,Tmax,"in vivo; po, 150 mg/kg",19.8 ± 8.4 min
same,half-life,"in vivo; po, 150 mg/kg",195 ± 61.8 min
same,Abnormal initial position of common carotid artery,[3]; [6],0.0 ± 0.0
same,Abnormal initial position of subclavian artery,[3]; [6],0.0 ± 0.0
same,Abnormal position of umbilical artery,[3]; [6],0.0 ± 0.0
same,Absent of aortic arch,[3]; [6],0.0 ± 0.0
same,Absent of innominate artery,[3]; [6],0.0 ± 0.0
same,Rib: 14 Ribs – [V],[3]; [6],6.9 ± 10.1
same,Rib: Shortened #13 – [V],[3]; [6],2.9 ± 6.4
same,"Skull: Interparietal bone, incomplete ossification – [V]",[3]; [6],0.0 ± 0.0
same,"Skull: Parietal bone, incomplete ossification – [V]",[3]; [6],0.0 ± 0.0
same,Visceral malformation rate (%),[3]; [6],0.0 ± 0.0%
same,Corpora lutea,"[3]; rat, 100 mg/kg",16.2 ± 2.1
same,Implantation sites,"[3]; rat, 100 mg/kg",15.0 ± 3.5
same,Live embryos,"[3]; rat, 100 mg/kg",14.5 ± 3.6
same,Resorptions,"[3]; rat, 100 mg/kg",0.5 ± 0.8
same,Corpora lutea,"[3]; rat, 300 mg/kg",17.7 ± 1.5
same,Implantation sites,"[3]; rat, 300 mg/kg",16.9 ± 1.5
same,Live embryos,"[3]; rat, 300 mg/kg",16.3 ± 1.6
same,Resorptions,"[3]; rat, 300 mg/kg",0.6 ± 0.5
same,Corpora lutea,"[3]; rat, 1000 mg/kg",17.4 ± 2.5
same,Implantation sites,"[3]; rat, 1000 mg/kg",17.0 ± 2.5
same,Live embryos,"[3]; rat, 1000 mg/kg",16.4 ± 2.1
same,Resorptions,"[3]; rat, 1000 mg/kg",0.6 ± 0.9
same,appearance malformation rate (%),"[3]; rat, 100 mg/kg",0.0 ± 0.0%
same,appearance malformation rate (%),"[3]; rat, 300 mg/kg",0.0 ± 0.0%
same,appearance malformation rate (%),"[3]; rat, 1000 mg/kg",0.0 ± 0.0%
same,embryo-fetal development study outcome,"[3]; rats, 1000 mg/kg/day (the highest dose tested)","no observed SY110-related maternal toxicity, reproductive toxicity, and effect on embryo-fetal viability"
same,MTRlast,[4]; i.v. (1 mg/kg),2.34 ± 0.22 h
same,Vzobs,[4]; i.v. (1 mg/kg),3.03 ± 0.71 L/kg
same,MTRlast,[4]; p.o. (10 mg/kg),6.60 ± 0.89 h
same,"Results, acute toxicity study","mice, p.o., 1000 mg/kg, single dose",No mice died
same,maximal tolerated single dose,text says rats,at least 1.0 g/kg
same,"lung pathology, H&E staining","[5]; mouse, in vivo",only scattered inflammatory cell infiltrates can be occasionally found in the alveolar interstitium
same,viral N protein expression in the lung tissue,"[5]; mouse, in vivo",substantially reduced the viral N protein expression
same,production of the infectious virus particles in the lung,"[5]; plaque assays, therapeutic treatment",effectively suppressed
same,IC50,various human proteases,> 100 µM
